Reference: ChEMBL document CHEMBL4834431, “Design of Dimeric Bile Acid Derivatives as Potent and Selective Human NTCP Inhibitors” (J Med Chem, 2021)
Active and inactive are the calls of the source. The calls are words filed in the database; no cut-off is given here.

Experiments:
Hepatitis B virus [1] = experiment: Antiviral activity against HBV infected in human HepG2-NTCP cells assessed as reduction in intracellular HBV RNA level at 1 uM by qPCR analysis; format: functional, organism-based
Hepatitis B virus [2] = experiment: Antiviral activity against HBV infected in human HepG2-NTCP cells assessed as reduction in intracellular accumulation of HBsAg at 1 uM by immunostaining based fluorescence microscopic analysis; format: functional, organism-based
[3] = target: T1, Hepatic sodium/bile acid cotransporter (Homo sapiens, UniProt Q14973); experiment: Inhibition of human NTCP-mediated [3H]-TCA uptake expressed in human HepG2 cells at 0.4 to 10 uM incubated for 10 mins by liquid scintillation counter analysis; format: cell-based; conditions: hepg2, 10 min, dose 0.4-10 µM
T1 sequence (Q14973 whole entry): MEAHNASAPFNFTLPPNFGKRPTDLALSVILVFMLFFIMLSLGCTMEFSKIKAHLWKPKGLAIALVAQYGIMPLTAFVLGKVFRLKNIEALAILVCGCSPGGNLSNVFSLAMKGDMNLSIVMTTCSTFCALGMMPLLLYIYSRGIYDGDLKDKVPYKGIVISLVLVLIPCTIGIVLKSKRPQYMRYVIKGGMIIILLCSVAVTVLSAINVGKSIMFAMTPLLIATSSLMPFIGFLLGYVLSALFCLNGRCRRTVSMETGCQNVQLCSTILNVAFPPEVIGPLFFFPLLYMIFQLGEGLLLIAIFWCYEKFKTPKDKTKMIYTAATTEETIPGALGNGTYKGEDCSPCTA

Hepatitis B virus [4] = experiment: Antiviral activity against HBV infected in human HepG2-NTCP cells assessed as reduction in intracellular accumulation of HBcAg at 1 uM by immunostaining based fluorescence microscopic analysis; format: functional, organism-based
[5] = target: T1, Hepatic sodium/bile acid cotransporter; experiment: Inhibition of human NTCP-mediated NQL-064 uptake expressed in human HepG2 cells incubated for 30 mins; format: cell-based; conditions: hepg2, 0.5 h
Hepatitis B virus [6] = experiment: Antiviral activity against HBV infected in human HepG2-NTCP cells assessed as reduction in HBeAg secretion at 31.25 to 2000 nM incubated for 24 hrs followed by replacement with fresh medium and measured at day 5 post infection by ELISA; format: functional, organism-based; conditions: dose 31.25-2000 nM
[7] = target: T1, Hepatic sodium/bile acid cotransporter; experiment: Inhibition of human NTCP-mediated NQL-065 uptake expressed in human HepG2 cells incubated for 30 mins; format: cell-based; conditions: hepg2, 0.5 h
[8] = target: T1, Hepatic sodium/bile acid cotransporter; experiment: Inhibition of human NTCP-mediated [3H]-TCA uptake expressed in human HepG2 cells pretreated for 2 hrs followed by [3H]-TCA addition in absence of FBS; format: cell-based
Hepatocyte = experiment: Cytotoxicity against primary tupaia hepatocytes expressing NTCP assessed as reduction in cell viability at 100 uM after 48 hrs by Cell-Titer Glo assay; format: cell-based; conditions: scandentia
Hepatitis B virus [9] = experiment: Antiviral activity against HBV infected in human HepG2-NTCP cells assessed as reduction in HBeAg secretion at 111 to 1000 nM incubated for 24 hrs followed by replacement with fresh medium and measured at day 5 post infection by ELISA; format: functional, organism-based; conditions: dose 111-1000 nM
[10] = target: T1, Hepatic sodium/bile acid cotransporter; experiment: Inhibition of human NTCP-mediated NQL-064 uptake expressed in human HepG2 cells; format: cell-based
[11] = target: T2, Hepatic sodium/bile acid cotransporter (Mus musculus, UniProt O08705); experiment: Inhibition of mouse NTCP-mediated NQL-064 uptake expressed in human HepG2 cells; format: cell-based
T2 sequence (O08705 whole entry): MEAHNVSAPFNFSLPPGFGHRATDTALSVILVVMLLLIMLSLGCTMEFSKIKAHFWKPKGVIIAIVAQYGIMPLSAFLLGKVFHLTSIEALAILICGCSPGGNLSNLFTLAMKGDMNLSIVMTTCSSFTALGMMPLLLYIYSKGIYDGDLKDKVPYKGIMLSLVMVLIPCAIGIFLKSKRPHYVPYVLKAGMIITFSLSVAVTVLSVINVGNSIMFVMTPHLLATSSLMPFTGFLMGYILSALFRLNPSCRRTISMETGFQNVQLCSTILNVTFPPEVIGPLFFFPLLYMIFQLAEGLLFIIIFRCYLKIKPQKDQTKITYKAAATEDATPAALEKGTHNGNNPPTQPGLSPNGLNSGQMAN

HepG2 [12] = experiment: Inhibition of tree shrew NTCP-mediated NQ-064 uptake expressed in human HepG2 cells; format: cell-based; conditions: Scandentia
[13] = Inhibition of monkey NTCP-mediated [3H]-TCA uptake expressed in human HepG2 cells; format: cell-based; conditions: Macaca mulatta
HepG2 [14] = experiment: Inhibition of monkey NTCP-mediated NQL-064 uptake expressed in human HepG2 cells; format: cell-based; conditions: Macaca mulatta
[15] = target: Hepatic sodium/bile acid cotransporter (Homo sapiens, UniProt Q14973); experiment: Inhibition of human NTCP residues (157 to 165) replaced with monkey NTCP -mediated [3H]-TCA uptake expressed in human HepG2 cells; format: cell-based

Structure (SMILES) | Activity (Hepatitis B virus [1]) | Activity (Hepatitis B virus [2]) | inhibition (INH) [3] | Activity (Hepatitis B virus [4]) | inhibition (INH) [5] | Activity (Hepatitis B virus [6]) | inhibition (INH) [7] | IC50 [8] [µM] | Activity (Hepatocyte) | Activity (Hepatitis B virus [9]) | inhibition (INH) [10] | inhibition (INH) [11] | inhibition (HepG2 [12]) | IC50 [13] [µM] | inhibition (HepG2 [14]) | IC50 [15] [µM]
C[C@H](CCC(=O)O[C@@H]1CC[C@@]2(C)[C@@H](C1)C[C@H](O)[C@@H]1[C@@H]2CC[C@]2(C)[C@@H]([C@H](C)CCC(=O)NCCS(=O)(=O)O)CC[C@@H]12)[C@H]1CC[C@H]2[C@@H]3[C@@H](O)C[C@@H]4C[C@H](O)CC[C@]4(C)[C@H]3CC[C@]12C | Active | Active | Active | Active | Active | Active | Active | 0.0362 | Non-Toxic | Active |  |  |  |  |  | 
C[C@H](CCC(=O)NCCS(=O)(=O)O)[C@H]1CC[C@H]2[C@@H]3[C@@H](O)C[C@@H]4C[C@H](NC(=O)CCCC(=O)N[C@@H]5CC[C@@]6(C)[C@@H](C5)C[C@H](O)[C@@H]5[C@@H]6CC[C@]6(C)[C@@H]([C@H](C)CCC(=O)NCCS(=O)(=O)O)CC[C@@H]56)CC[C@]4(C)[C@H]3CC[C@]12C | Active | Active |  | Active | Active |  | Active |  | Non-Toxic | Active | Active | Not Active | inactive | 4.77 | inactive | 8.35
